Read-outs that look alike come from different tables or passages of the source.
Tests used:
male Wistar rats [1] = assay: Elevated plus maze; assay type: in vivo, rat; conditions: for effect on percentage of time on open arms: post hoc p 0.032
male Wistar rats [2] = assay: Morris water maze; assay type: in vivo, rat; conditions: for platform zone entries during the probe trial: after five-day treatment at 30 mg/kg i.p.; for overall influence on water maze learning parameters (acquisition): 5 days
[3] = target: human GABAA receptor containing α4 subunit (BZ site); conditions: read-out: Ki α4; second independent set of experiments
α1β3γ2 GABAA receptors [4] = target: T1, α1β3γ2 GABAA receptors (Rattus norvegicus, UniProt P18508+P62813); conditions: 100 nM, EC3 GABA, mean ± SEM; ref Rivas et al., 2009; cited from earlier work
α2β3γ2 GABAA receptors [5] = target: T2, α2β3γ2 GABAA receptors (Rattus norvegicus, UniProt P18508+P23576); conditions: 100 nM, EC3 GABA, mean ± SEM; ref Rivas et al., 2009; cited from earlier work
α3β3γ2 GABAA receptors [6] = target: T3, α3β3γ2 GABAA receptors (Rattus norvegicus, UniProt P18508+P20236); conditions: 100 nM, EC3 GABA, mean ± SEM; ref Rivas et al., 2009; cited from earlier work
α5β3γ2 GABAA receptors [7] = target: T4, α5β3γ2 GABAA receptors (Rattus norvegicus, UniProt P18508+P19969); conditions: 100 nM, EC3 GABA, mean ± SEM; ref Rivas et al., 2009; cited from earlier work
male Wistar rats [8] = assay: Spontaneous locomotor activity; conditions: for effect on total distance travelled during 45 min: 20 min before test, vs solvent; for dose inducing a hypolocomotor effect in the SLA: i.p.; for effect on total distance (locomotion), 30 min: Dunnett's test
[9] = target: human GABAA receptor containing α6 subunit (BZ site) (Homo sapiens, UniProt P18507+Q16445); assay: Competition binding assay with [3H]flunitrazepam; conditions: read-out: Ki α6, transfected HEK 293T, duplicate
α1β3γ2 GABAA receptors [10] = target: T1, α1β3γ2 GABAA receptors; assay type: cell-based
α2β3γ2 GABAA receptors [11] = target: T2, α2β3γ2 GABAA receptors; assay type: cell-based; conditions: for % of control current, α2β3γ2: 100 nM, EC3 GABA, mean ± SEM, 0.1 µM
α3β3γ2 GABAA receptors [12] = target: T3, α3β3γ2 GABAA receptors; assay type: cell-based; conditions: for remaining activity at 0.1 µM: read-out: % of control current, α3β3γ2, 100 nM, EC3 GABA, mean ± SEM
α5β3γ2 GABAA receptors [13] = target: T4, α5β3γ2 GABAA receptors; assay type: cell-based; conditions: for % of control current, α5β3γ2: 100 nM, EC3 GABA, mean ± SEM
male Wistar rats [14] = conditions: ref Savić et al., 2008b, cited from earlier work
male Wistar rats [15] = conditions: 30 mg/kg; ref Savić et al., 2008b; cited from earlier work
[16] = target: human GABAA receptor containing α3 subunit (BZ site) (Homo sapiens, UniProt P18507+P34903); assay: Competition binding assay with [3H]flunitrazepam; conditions: read-out: Ki α3, transfected HEK 293T, duplicate
[17] = target: human GABAA receptor containing α5 subunit (BZ site) (Homo sapiens, UniProt P18507+P31644); assay: Competition binding assay with [3H]flunitrazepam
[18] = read-out: % of control current, α1β3γ2
[19] = zolpidem 0.5 mg/kg during acquisition, ±SEM
[20] = zolpidem 1.0 mg/kg during acquisition, ±SEM
[21] = zolpidem 2.0 mg/kg during acquisition, ±SEM
[22] = zolpidem 2.0 mg/kg during acquisition, ±SEM, P<0.05 vs ZOL 0.5

## C#Cc1ccc2c(c1)C(c1ccccn1)=NCc1c(C(=O)OCC)ncn1-2 [SH-053-2'N, 8-ethynyl-6-(2’-pyrydine)-4H-2,5,10b-triaza-benzo[e]azulene-3-carboxylic acid ethyl ester]
Male Wistar rats [1]; 30 mg/kg i.p.
  effect on percentage of time on open arms: effective treatments
Male Wistar rats [1]; 10, 20 and 30 mg/kg i.p., Dunnett's test vs solvent
  effect on total arm entries: significant effect of the two higher doses
Male Wistar rats [1]; 10, 20 and 30 mg/kg i.p., overall treatment effect
  effect on distance travelled in the open arms: no significant effect of treatment
Male Wistar rats [1]; 10, 20 and 30 mg/kg i.p., post hoc test
  effect on percentage of open arm entries: neither of the single doses was significant on its own
Male Wistar rats [2]; 30 mg/kg i.p., vs control or SH-053-S-CH3-2'F 30 mg/kg
  latency to find the platform, single day: significantly longer search time on the fourth day
Male Wistar rats [2]
  platform zone entries during the probe trial: lack of incapacitating consequences
[3]
  Ki: > 5 µM
α1β3γ2 GABAA receptors [4]
  % of control current, α1β3γ2: 113 ± 2%
α2β3γ2 GABAA receptors [5]
  % of control current, α2β3γ2: 165 ± 2%
α3β3γ2 GABAA receptors [6]
  % of control current, α3β3γ2: 149 ± 3%
α5β3γ2 GABAA receptors [7]
  % of control current, α5β3γ2: 130 ± 3%
Male Wistar rats [8]; 30 mg/kg i.p.
  effect on total distance travelled during 45 min: activity-depressing effect of all three treatments was significant
Male Wistar rats [8]
  dose inducing a hypolocomotor effect in the SLA: 30 mg/kg

## C#Cc1ccc2c(c1)C(c1ccccc1F)=NC(C)c1c(C(=O)OCC)ncn1-2 (centres unmarked) [SH-053-S-CH3-2'F, 8-ethynyl-6-(2-fluorophenyl)-4-methyl-4H-2,5,10b-triaza-benzo[e]azulene-3-carboxylic acid ethyl ester]
[9]
  Ki: > 5 µM
α1β3γ2 GABAA receptors [10]; 100 nM, EC3 GABA, mean ± SEM
  % of control current, α1β3γ2: non-significant changes relative to control current
α1β3γ2 GABAA receptors [10]; [18]
  remaining activity at 1 µM: 164 ± 6%
α2β3γ2 GABAA receptors [11]
  % of control current, α2β3γ2: 169 ± 5%
α3β3γ2 GABAA receptors [12]
  remaining activity at 0.1 µM: 138 ± 5%
α5β3γ2 GABAA receptors [13]; 0.1 µM
  % of control current, α5β3γ2: 218 ± 4%
Male Wistar rats [2]
  platform zone entries during the probe trial: lack of incapacitating consequences
Male Wistar rats [14]; 30 mg/kg
  effect on locomotor activity: significant decrease of locomotor activity
Male Wistar rats [14]
  dose inducing a hypolocomotor effect in the SLA: 30 mg/kg
Male Wistar rats [15]
  effect on percentage of open arm entries: significant effect
  effect on percentage of time on open arms: significant effect
  effects on general activity-related parameters: without concomitant effects

## C#Cc1ccc2c(c1)C(c1ccccc1F)=NCc1c(C(=O)OCC)ncn1-2 [JY-XHe-053, 8-ethynyl-6-(2-fluorophenyl)-4H-2,5,10b-triaza-benzo[e]azulene-3-carboxylic acid ethyl ester]
[16]
  Ki: 0.0349 µM
[17]; from Ki values
  binding selectivity for GABAA receptors containing the α5 subunit: approximately 18 fold
Male Wistar rats [1]; 2.5-40 mg/kg i.p.
  general activity and anxiety-related parameters: devoid of significant behavioral activity
α1β3γ2 GABAA receptors [4]
  % of control current, α1β3γ2: 169%
α2β3γ2 GABAA receptors [5]
  % of control current, α2β3γ2: 307 ± 14%
α3β3γ2 GABAA receptors [6]
  % of control current, α3β3γ2: 345 ± 26%
α5β3γ2 GABAA receptors [7]
  % of control current, α5β3γ2: 220%
Male Wistar rats [8]; 2.5-40 mg/kg i.p., 30 min
  effect on central zone activity: not discernible
Male Wistar rats [8]; 2.5-40 mg/kg i.p., 30 min, vs control
  effect on peripheral zone distance: three higher doses of JYXHe-053 were significantly different from control
Male Wistar rats [8]
  dose inducing a hypolocomotor effect in the SLA: ≥ 10 mg/kg

## Cc1ccc(-c2nc3ccc(C)cn3c2CC(=O)N(C)C)cc1 [zolpidem]
[17]; read-out: Ki α5, [3H]flunitrazepam, transfected HEK 293T, duplicate
  Ki: > 10 µM
α1β3γ2 GABAA receptors [10]; [18]
  remaining activity at 0.1 µM: 180 ± 14%
α5β3γ2 GABAA receptors [13]
  % of control current, α5β3γ2: non-significant changes relative to control current
Male Wistar rats [2]; 0.5 mg/kg i.p. daily, vs control
  overall influence on water maze learning parameters (acquisition): different related to control
Male Wistar rats [2]; 2 mg/kg i.p., day 5 of acquisition, chance 40%
  percent of distance travelled in the NE quadrant that was in the target region: 40.5%
Male Wistar rats [2]; 1 and 2 mg/kg i.p. daily, vs 0.5 mg/kg
  overall influence on water maze learning parameters (acquisition): behaviorally impaired related to 0.5 mg/kg zolpidem
Male Wistar rats [2]; [19]
  Peripheral ring distance, probe trial: 4.16±0.61 m
  Peripheral ring time, probe trial: 33.48 ± 3.68 s
  Platform distance, probe trial: 0.097±0.031 m
  Platform number of entries, probe trial: 1.25±0.41
  Platform quadrant (NE) distance, probe trial: 2.41±0.29 m
  Platform quadrant (NE) time, probe trial: 11.86 ± 1.44 s
  Platform ring distance, probe trial: 5.27±0.68 m
  Platform ring time, probe trial: 21.46 ± 3.05 s
  Target region distance, probe trial: 1.51±0.27 m
  Target region time, probe trial: 7.26 ± 1.36 s
Male Wistar rats [2]; [20]
  Peripheral ring distance, probe trial: 6.09±0.89 m
  Peripheral ring time, probe trial: 39.86 ± 1.67 s
  Platform distance, probe trial: 0.047±0.028 m
  Platform number of entries, probe trial: 0.38±0.18
  Platform quadrant (NE) distance, probe trial: 2.18±0.51 m
  Platform ring distance, probe trial: 4.48±0.31 m
  Platform ring time, probe trial: 17.31 ± 1.38 s
  Target region distance, probe trial: 1.12±0.14 m
Male Wistar rats [2]; zolpidem 1.0 mg/kg during acquisition, ±SEM, P<0.05 vs ZOL 0.5
  Target region time, probe trial: 4.03 ± 0.52 s
Male Wistar rats [2]; [21]
  Peripheral ring time, probe trial: 42.80 ± 3.35 s
  Platform distance, probe trial: 0.053±0.023 m
  Platform number of entries, probe trial: 0.50±0.19
  Platform quadrant (NE) distance, probe trial: 2.22±0.44 m
  Platform ring distance, probe trial: 4.00±0.65 m
  Platform ring time, probe trial: 14.50 ± 2.60 s
  Target region distance, probe trial: 0.99±0.22 m
Male Wistar rats [2]; [22]
  Peripheral ring distance, probe trial: 7.85±0.82 m
  Target region time, probe trial: 3.51 ± 0.76 s

## CN1C(=O)CN=C(c2ccccc2)c2cc(Cl)ccc21 [diazepam]
α1β3γ2 GABAA receptors [10]; [18]
  remaining activity at 0.1 µM: 246 ± 16%
α2β3γ2 GABAA receptors [11]; read-out: % of control current, α2β3γ2, 100 nM, EC3 GABA, mean ± SEM
  remaining activity at 0.1 µM: 400 ± 22%
α3β3γ2 GABAA receptors [12]
  remaining activity at 0.1 µM: 461 ± 34%
α5β3γ2 GABAA receptors [13]; read-out: % of control current, α5β3γ2, 100 nM, EC3 GABA, mean ± SEM
  remaining activity at 0.1 µM: 322 ± 7%
Male Wistar rats [1]; 2.0 mg/kg i.p.
  effect on percentage of time on open arms: effective treatments
Male Wistar rats [8]; 1.25 mg/kg i.p.
  effect on total distance travelled during 45 min: activity-depressing effect of all three treatments was significant
Male Wistar rats [8]; 2 mg/kg i.p.
  effect on distance travelled in 5-min bins: induced overt sedation during the first 10 min of recording
  effect on total distance (locomotion), 30 min: significantly depressed locomotion

## C#Cc1ccc2c(c1)C(c1ccccc1F)=NC(C)c1c(C(=O)OCC)ncn1-2 (centres unmarked) [SH-053-R-CH3-2'F, 8-ethynyl-6-(2-fluorophenyl)-4-methyl-4H-2,5,10b-triaza-benzo[e]azulene-3-carboxylic acid ethyl ester]
α1β3γ2 GABAA receptors [10]; [18]
  remaining activity at 0.1 µM: 111 ± 2%
α2β3γ2 GABAA receptors [11]
  % of control current, α2β3γ2: 124 ± 9%
α3β3γ2 GABAA receptors [12]; 100 nM, EC3 GABA, mean ± SEM, 0.1 µM
  % of control current, α3β3γ2: 125 ± 8%
α5β3γ2 GABAA receptors [13]; 0.1 µM
  % of control current, α5β3γ2: 183 ± 7%
Male Wistar rats [1]; doses up to 30 mg/kg i.p.
  general activity- or anxiety-related parameters: completely devoid of changes
Male Wistar rats [2]
  platform zone entries during the probe trial: lack of incapacitating consequences
Male Wistar rats [8]; 30 mg/kg i.p.
  effect on total distance (locomotion), 30 min: significantly depressed locomotion
Male Wistar rats [8]; 10, 20 and 30 mg/kg i.p., 6 intervals
  effect on distance travelled in 5-min bins: did not significantly decrease locomotion
Male Wistar rats [8]; 20 and 30 mg/kg i.p.
  effect on central and peripheral zone locomotion: decreased central, but not peripheral locomotion

— paper PMC2859624 (Progress in neuro-psychopharmacology & biological psychiatry, 2010)
